Laboratory results published in patent publication US10155727B2, “Pyrazoles” (Janssen Pharmaceuticals, Inc., priority 2014, dated 2018).
pIC50: −log10 of the molar value. Read-outs that look alike come from different tables or passages of the source.

Columns and labels:
mice = experiment: Forced swim test in mice; assay type: in vivo; conditions: p.o. 30 minutes before the test, male NMRI mice
Description: The compounds of the invention show significant antidepressive effects in the forced swim test in mice, an animal model of depression at doses of 100 mg/kg or below.
The method, which detects antidepressant activity, follows that described by Porsolt et al (Arch. Int. Pharmacodyn., 229, 327-336, 1977), which is incorporated by reference herein in its entirety.
Mice forced to swim in a situation from which they cannot escape rapidly become immobile. Antidepressants decrease the duration of immobility.
Male NMRI mice (Janvier, France), weighing 20-30 g, were individually placed in a cylinder (height=24 cm; diameter=13 cm) containing 10 cm water (22° C.) from which they cannot escape.
The mice were placed in the water for 6 minutes and the duration of immobility during the last 4 minutes was measured. The latency to the first bout of immobility was also recorded starting from the beginning of the test. 10 mice were studied per group. The test substance was administered p.o. 30 minutes before the test and compared with vehicle control group. The test was performed blind.

[1] = biological target: human NR1/NR2B ion channels (Homo sapiens (Human), UniProt Q05586+Q13224); experiment: HNR2BC: calcium influx assay on cloned human NR1/NR2B ion channels expressed in HEK cells; assay type: cell-based; conditions: HEK cells with hNR1/NR2B, 100 μM glutamate + 100 μM glycine, 3 parameter plot
Description: HNR2BC: Effects of Test Articles on Cloned Human NR1/NR2B Ion Channels Expressed in Mammalian Cells
The ability of test compounds to act as an antagonist of NR1/NR2B was evaluated with a calcium influx assay (Calcium 5 Assay Kit, Molecular Devices).
For the antagonist assessment, NR1/NR2B was activated with the positive control agonist (Mg^2+-free HBPS+100 μM glutamic acid+100 μM glycine).
A HEK cell line, stable transfected with hNR1/NR2B was used. This tetracycline inducible cell line is transfected with GRIN1 (GeneBank accession number NM_007327.2) and GRIN2B (GeneBank accession number NM_000834.3.). The cells were cultured in cell culture flasks with DMEM/F12 supplemented with 10% FCS, 1% PenStrep and a selection of additional antibiotics.
Forty-Eight (48) hours before the assay the cells were plated into 96-well black well, flat clear bottom microtiter plates at a density of 50000 cells/well. Twenty-Four (24) hours later the receptor expression was induced by the addition of 1 μg/ml tetracycline in the presence of 2 mM ketamine and 200 μM 7-CKA. After 24 h of receptor induction the plates were used for the assay.
The medium was removed and the cells were loaded with 200 μl loading buffer (Molecular Devices) in Mg2+-free HBPS containing 100 μM 7-CKA at 37° C. for one (1) hour.
The test compounds were then solubilized in 100% DMSO and diluted to yield eight (8) different concentrations in 100% DMSO. A 96 well drug plate was prepared by diluting with water and glycine/glutamate to a 5-fold of final test concentration. Fluorescence intensity of the cells in the plate was measured in a FlexStation using an excitation wavelength of 485 nm and an emission wavelength of 525 nm. Twenty (20) seconds after starting the recordings the compounds together with the agonists glycine (100 μM) and glutamate (100 μM) were added into the wells and the fluorescence measured for ninety (90) seconds in summary.
The IC50 values provided in the paragraph below were determined using a 3 parameter plot.

rat NR1/NR2B receptor = rat NR1/NR2B receptor (Rattus norvegicus (Rat), UniProt P35439+Q00960); experiment: NR2B binding assay: inhibition of specific [3H]-Ifenprodil binding to the rat NR1/NR2B receptor; conditions: [3H]-Ifenprodil binding, rat brain membranes
hERG receptor = hERG receptor (Homo sapiens (Human), UniProt Q12809); experiment: HERGBD: inhibition of specific [3H]-Dofetilide binding to the hERG receptor
Sequence of hERG receptor (Q12809 whole entry): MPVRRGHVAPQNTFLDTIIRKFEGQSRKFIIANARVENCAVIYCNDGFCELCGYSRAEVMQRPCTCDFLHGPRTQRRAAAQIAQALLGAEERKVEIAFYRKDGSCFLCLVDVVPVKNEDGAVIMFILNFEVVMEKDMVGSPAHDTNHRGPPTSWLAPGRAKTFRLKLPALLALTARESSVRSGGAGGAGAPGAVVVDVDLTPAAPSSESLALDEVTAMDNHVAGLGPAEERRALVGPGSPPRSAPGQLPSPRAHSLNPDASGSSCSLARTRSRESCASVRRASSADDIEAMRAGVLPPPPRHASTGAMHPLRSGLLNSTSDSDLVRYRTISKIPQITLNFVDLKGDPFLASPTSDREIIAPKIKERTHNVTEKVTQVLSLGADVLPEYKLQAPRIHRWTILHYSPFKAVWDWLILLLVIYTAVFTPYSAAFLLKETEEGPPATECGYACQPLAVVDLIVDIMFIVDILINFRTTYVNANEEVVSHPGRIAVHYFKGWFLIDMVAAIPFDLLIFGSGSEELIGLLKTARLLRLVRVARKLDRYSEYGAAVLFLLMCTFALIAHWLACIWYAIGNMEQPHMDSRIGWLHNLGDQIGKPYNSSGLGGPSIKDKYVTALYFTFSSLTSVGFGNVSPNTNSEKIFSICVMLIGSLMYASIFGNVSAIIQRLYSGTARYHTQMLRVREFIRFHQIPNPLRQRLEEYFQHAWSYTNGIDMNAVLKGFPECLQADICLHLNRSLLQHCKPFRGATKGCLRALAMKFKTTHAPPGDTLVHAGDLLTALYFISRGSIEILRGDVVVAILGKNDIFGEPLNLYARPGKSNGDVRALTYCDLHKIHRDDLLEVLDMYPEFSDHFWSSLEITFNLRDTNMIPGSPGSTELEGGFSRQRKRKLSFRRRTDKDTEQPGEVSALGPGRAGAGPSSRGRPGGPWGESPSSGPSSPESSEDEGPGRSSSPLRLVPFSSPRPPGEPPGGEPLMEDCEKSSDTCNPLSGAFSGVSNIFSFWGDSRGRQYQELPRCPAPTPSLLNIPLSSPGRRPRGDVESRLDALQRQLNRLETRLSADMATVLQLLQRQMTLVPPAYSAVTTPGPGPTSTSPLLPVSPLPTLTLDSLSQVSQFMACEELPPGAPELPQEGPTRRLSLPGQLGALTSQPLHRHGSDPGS

Sequence of human NR1/NR2B ion channels (Q13224 27-1484, other chains not shown): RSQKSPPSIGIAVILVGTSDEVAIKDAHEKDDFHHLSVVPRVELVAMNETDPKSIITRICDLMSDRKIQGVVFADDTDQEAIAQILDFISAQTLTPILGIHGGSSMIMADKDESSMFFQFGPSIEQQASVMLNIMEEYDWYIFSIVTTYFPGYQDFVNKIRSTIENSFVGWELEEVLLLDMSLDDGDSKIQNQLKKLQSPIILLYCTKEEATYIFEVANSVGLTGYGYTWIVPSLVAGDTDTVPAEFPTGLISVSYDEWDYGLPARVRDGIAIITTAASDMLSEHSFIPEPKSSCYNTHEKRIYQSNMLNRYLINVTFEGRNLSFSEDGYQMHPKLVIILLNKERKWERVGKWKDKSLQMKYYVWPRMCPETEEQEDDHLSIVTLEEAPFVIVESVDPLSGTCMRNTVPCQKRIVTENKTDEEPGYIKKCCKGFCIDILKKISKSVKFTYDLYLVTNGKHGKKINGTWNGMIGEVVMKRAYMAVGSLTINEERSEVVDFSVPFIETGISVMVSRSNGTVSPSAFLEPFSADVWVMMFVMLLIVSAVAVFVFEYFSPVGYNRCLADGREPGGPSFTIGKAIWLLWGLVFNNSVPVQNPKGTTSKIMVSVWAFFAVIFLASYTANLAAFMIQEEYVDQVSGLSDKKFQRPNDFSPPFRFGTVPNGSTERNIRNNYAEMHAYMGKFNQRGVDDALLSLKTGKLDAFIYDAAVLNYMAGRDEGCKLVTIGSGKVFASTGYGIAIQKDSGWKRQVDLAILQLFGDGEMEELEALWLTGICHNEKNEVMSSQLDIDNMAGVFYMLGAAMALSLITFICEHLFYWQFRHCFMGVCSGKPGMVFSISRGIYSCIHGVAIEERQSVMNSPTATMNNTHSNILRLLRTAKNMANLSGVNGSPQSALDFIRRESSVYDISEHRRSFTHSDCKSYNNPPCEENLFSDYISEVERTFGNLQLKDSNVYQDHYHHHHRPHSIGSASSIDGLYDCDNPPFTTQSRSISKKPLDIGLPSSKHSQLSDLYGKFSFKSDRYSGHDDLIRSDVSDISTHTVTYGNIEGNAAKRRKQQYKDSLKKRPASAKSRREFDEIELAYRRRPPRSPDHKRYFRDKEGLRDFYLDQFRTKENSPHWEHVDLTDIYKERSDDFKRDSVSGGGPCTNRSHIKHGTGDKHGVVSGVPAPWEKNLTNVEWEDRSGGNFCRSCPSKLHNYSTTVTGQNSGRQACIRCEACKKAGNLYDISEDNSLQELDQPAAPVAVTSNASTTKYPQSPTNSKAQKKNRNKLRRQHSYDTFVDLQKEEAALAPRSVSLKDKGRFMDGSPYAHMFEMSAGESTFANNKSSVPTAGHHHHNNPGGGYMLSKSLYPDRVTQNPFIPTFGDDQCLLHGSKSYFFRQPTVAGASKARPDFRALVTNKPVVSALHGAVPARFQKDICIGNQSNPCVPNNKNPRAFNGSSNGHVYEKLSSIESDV
Sequence of rat NR1/NR2B receptor (Q00960 27-1482, other chains not shown): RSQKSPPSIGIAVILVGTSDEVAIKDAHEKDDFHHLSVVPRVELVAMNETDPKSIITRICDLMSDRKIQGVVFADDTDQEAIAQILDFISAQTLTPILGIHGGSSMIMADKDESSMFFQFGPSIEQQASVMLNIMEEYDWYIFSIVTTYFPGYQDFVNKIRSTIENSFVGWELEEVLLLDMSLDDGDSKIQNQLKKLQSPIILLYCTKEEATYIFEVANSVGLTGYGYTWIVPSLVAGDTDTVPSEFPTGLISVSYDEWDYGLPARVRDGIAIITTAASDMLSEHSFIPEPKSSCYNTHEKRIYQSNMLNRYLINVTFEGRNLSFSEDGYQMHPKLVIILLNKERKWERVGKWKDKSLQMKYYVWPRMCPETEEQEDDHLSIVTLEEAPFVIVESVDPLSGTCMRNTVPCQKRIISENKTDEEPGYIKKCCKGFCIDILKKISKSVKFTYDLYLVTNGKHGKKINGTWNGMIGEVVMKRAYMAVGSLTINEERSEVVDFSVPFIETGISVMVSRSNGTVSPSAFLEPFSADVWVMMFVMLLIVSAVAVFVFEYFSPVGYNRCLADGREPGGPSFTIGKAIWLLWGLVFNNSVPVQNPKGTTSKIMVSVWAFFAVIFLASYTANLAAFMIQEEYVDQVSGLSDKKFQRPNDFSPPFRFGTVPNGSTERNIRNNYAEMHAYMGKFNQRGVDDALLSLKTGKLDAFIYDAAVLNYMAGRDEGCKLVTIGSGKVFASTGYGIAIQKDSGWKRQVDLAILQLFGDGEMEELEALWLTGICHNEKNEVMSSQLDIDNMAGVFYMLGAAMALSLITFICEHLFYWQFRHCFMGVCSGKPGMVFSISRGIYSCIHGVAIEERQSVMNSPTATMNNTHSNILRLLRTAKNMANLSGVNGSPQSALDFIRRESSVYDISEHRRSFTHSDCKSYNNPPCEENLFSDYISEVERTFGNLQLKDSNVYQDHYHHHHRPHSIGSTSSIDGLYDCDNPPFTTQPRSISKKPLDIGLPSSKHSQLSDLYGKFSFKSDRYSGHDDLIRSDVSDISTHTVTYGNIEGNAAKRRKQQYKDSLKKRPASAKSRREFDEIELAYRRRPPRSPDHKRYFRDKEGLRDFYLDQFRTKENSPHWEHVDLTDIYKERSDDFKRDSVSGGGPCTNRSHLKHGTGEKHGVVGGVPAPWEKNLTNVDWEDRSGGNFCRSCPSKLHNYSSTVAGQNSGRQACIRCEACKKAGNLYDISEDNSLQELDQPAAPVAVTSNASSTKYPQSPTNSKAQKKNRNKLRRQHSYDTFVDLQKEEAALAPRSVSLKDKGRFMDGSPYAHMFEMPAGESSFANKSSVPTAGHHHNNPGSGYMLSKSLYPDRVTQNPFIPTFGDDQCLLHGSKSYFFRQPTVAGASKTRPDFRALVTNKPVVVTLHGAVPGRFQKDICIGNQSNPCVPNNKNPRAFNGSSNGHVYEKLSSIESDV

| Structure (SMILES) | Minimum effective dose (mice) [mg/kg] | pIC50 [1] | pIC50 (rat NR1/NR2B receptor) | pIC50 (hERG receptor) | pIC50 (hERG receptor; [3H]-Dofetilide binding, membranes of HEK cells with human ERG receptor, read-out: IC50) |
| --- | --- | --- | --- | --- | --- |
| Cn1ccc(Cn2cc(-c3ccc(Cl)c(OC(F)F)c3)cn2)n1 [Example 2, 3-[[4-[4-Chloro-3-(difluoromethoxy)phenyl]pyrazol-1-yl]methyl]-1-methyl-pyrazole] | 30 | 5.61 | – | – | – |
| Fc1ccc(-c2cnn(Cc3cc[nH]n3)c2)cc1OC(F)F [Example 18, 4-[3-(difluoromethoxy)-4-fluoro-phenyl]-1-(1H-pyrazol-3-ylmethyl) pyrazole] | 10 | 6.43 | – | – | – |
| CCCc1cc(Cn2cc(-c3ccc(F)c(C(F)F)c3)cn2)n[nH]1 [Example 41, 3-[[4-[3-(Difluoromethyl)-4-fluoro-phenyl]pyrazol-1-yl]methyl]-5-propyl-1H-pyrazole] | – | 4.22 | 6.94 | 4.80 | – |
| Cc1[nH]ncc1Cn1cc(-c2ccc(F)c(C(F)F)c2)cn1 [Example 42, 4-[3-(Difluoromethyl)-4-fluoro-phenyl]-1-[(5-methyl-1H-pyrazol-4-yl)methyl]pyrazole] | – | 5.64 | 6.69 | 4.15 | – |
| CCc1[nH]ncc1Cn1cc(-c2ccc(F)c(C(F)F)c2)cn1 [Example 43, 4-[3-(Difluoromethyl)-4-fluoro-phenyl]-1-[(5-ethyl-1H-pyrazol-4-yl)methyl]pyrazole] | – | 5.58 | 6.87 | 4.24 | – |
| CC(F)(F)c1cc(-c2cnn(Cc3cc[nH]n3)c2)ccc1F [Example 44, 4-[3-(1,1-difluoroethyl)-4-fluoro-phenyl]-1-(1H-pyrazol-3-ylmethyl)pyrazole Succinate] | – | 6.28 | 7.77 | < 4.00 | – |
| Cc1cc(Cn2cc(-c3ccc(Cl)cc3)cn2)n(C)n1 [Example 74, 5-[[4-(4-Chlorophenyl)pyrazol-1-yl]methyl]-1,3-dimethyl-pyrazole] | – | 4.29 | 5.22 | < 4.00 | – |
| Cn1ccc(Cn2cc(-c3ccc(Cl)cc3)cn2)n1 [Example 75, 3-[[4-(4-Chlorophenyl)pyrazol-1-yl]methyl]-1-methyl-pyrazole] | – | 4.47 | 5.52 | 3.88 | – |
| Cc1n[nH]c(C)c1Cn1cc(-c2ccc(Cl)c(OC(F)F)c2)cn1 [Example 88, 4-[[4-(3-difluoromethoxy-4-chloro-phenyl)pyrazol-1-yl]methyl]-3,5-dimethyl-1H-pyrazole] | – | < 5.00 | 6.82 | 4.36 | – |
| CCc1c[nH]nc1Cn1cc(-c2ccc(F)c(OC(F)F)c2)cn1 [Example 91, 3-[[4-[3-(difluoromethoxy)-4-fluoro-phenyl]pyrazol-1-yl]methyl]-4-ethyl-1H-pyrazole Succinate] | – | 5.90 | 7.36 | 4.31 | – |
| CCc1c[nH]nc1Cn1cc(-c2ccc(F)c(C(F)F)c2)cn1 [Example 92, 3-[[4-[3-(difluoromethyl)-4-fluoro-phenyl]pyrazol-1-yl]methyl]-4-ethyl-1H-pyrazole] | – | 4.92 | 7.15 | – | 4.56 |
